Measured values published in patent US20220089655A1, “NOVEL POLYPEPTIDE-MODIFYING ENZYMES AND USES THEREOF” (ETH ZURICH, priority 2018, published 2022).
Starred links: 1 amine or outer side, 2 acyl side, 3 side chain; linkers in the order of their positions; H or OH if unused. Non-standard residues stand in square brackets, D forms with d. No end group written: not given here. *: point of attachment. X1 = CC(C)C(C)[C@H](N[*:1])C(=O)[*:2]; Ile(3-Me) = CCC(C)(C)[C@H](N)C(=O)O; d(aThr) = C[C@@H](O)[C@@H](N)C(=O)O; Butanoyl(2-oxo) = CCC(=O)C(=O)*; Tle = CC(C)(C)[C@H](N)C(=O)O

What was measured:
[1] = Cytotoxic assay (MTT) against HeLa cells; assay type: cell-based; conditions: 3 days incubation, MTT readout
Procedure: The activity of aeronamide A was measured against HeLa cells. Stocked HeLa cells were resuspended in 10 mL HEPES buffered high glucose Dulbecco's Modified Eagle Medium (DMEM) supplemented with GlutaMAX (Gibco). Additionally, the medium contained 10% fetal calf serum (FCS) and […] gentamycin. The cells were centrifuged for 5 min at 1000×g and room temperature. The medium was discarded and the cells resuspended in 10 mL fresh medium. The cells were put in a culture dish and incubated for 3-4 days at 37° C. The cells were checked under the microscope and treated further only when 60-80% of the surface was covered with cells. The medium was removed from the culture flask and the cells were washed with 10 mL phosphate buffered saline (PBS). The PBS was discarded and the cells treated with 2 mL Trypsin-EDTA solution. When the cells were detached, 10 mL of medium was added and centrifuged for 5 min at 1000×g and room temperature. The supernatant was discarded and 10 mL fresh medium were added. 2 mL of the cell suspension were put in a fresh culture flask containing 10 mL medium. Cells healthy enough for cytotoxicity assays were counted and diluted to a 10,000 cells/mL solution. 96 well plates were filled with 200 μL cell suspension per well. All plates were incubated overnight at 37° C. […] Absorbance was measured at 570 nm and IC50 was calculated using GraphPad Prism 6 (GraphPad).

bacteria = assay: Activity towards bacteria
fungi = assay: Activity towards fungi

Which results are given for “{Butanoyl(2-oxo)}-[Ile(3-Me)][dA][Tle][dV][X1][dV]A[dV][Tle]GA[dA]A[dA]A[dV][Tle][d(aThr)]Y[dL]G[dA]A[dD](NHMe)[Tle][dV]G[dA]A[dD](NHMe)G[d(aThr)][Tle][d(aThr)]A[dD](NHMe)A[dV]A[dD](NHMe)T[dD](NHMe)A[dV]A [Aeronamide A]”?
IC50 [1]: 1.48 nM; cytotoxic activity towards bacteria (bacteria): not towards the bacteria and fungi; cytotoxic activity towards fungi (fungi): not towards the bacteria and fungi
